Data as given in patent US4939134A, “26-aminocholesterol and derivatives and analogs thereof in the regulation of cholesterol accumulation in body tissue” (New York University, priority 1988, dated 1990).
Entries after “also recorded” stand apart in the source; their conditions may differ.

Key:
[1] = tested on: LDLR (+) Human Fibroblasts; assay: Total 125I-LDL binding to human fibroblasts; assay type: cell-based; conditions: for 125I-LDL BINDING: 10 ug/ml 125I-LDL, 4 h, 37° C., n = 3, untreated 49.7; for LDL-binding (in words): human fibroblasts / tissue cells
Protocol: (§1) Normal LDLR(+) human fibroblasts (GM3440) were obtained from the National Institute of General Medical Sciences Human Genetic Cell Repository. Stock fibroblast monolayers were maintained in T-75 disposable Nunc flasks, in a medium comprising 10 ml of MEM (Eagle's Minimum Essential Medium with Earl's salts, pH 7.4) supplemented with 10% (v/v) fetal bovine serum (FBS), 2% (v/v) non-essential and essential amino acids, 1% (v/v) MEM vitamins, 1% L-glutamine (292 ug/ml), 1% penicillin (100 U/ml)-streptomycin (100 ug/ml). The fibroblast stock was maintained at 37° C. in a humidified atmosphere of 5% CO2 and 95% air.
(§2) For experiments using fibroblasts, confluent stock cultures (5-18 passages) were washed once with Dulbecco's PBS (phosphate buffered saline) prior to the addition of 3 ml aliquots of experimental MEM containing 25% (v/v) D2 O, 9% (v/v) dilapidated FBS, 1% FBS (v/v), 1% MEM vitamins and L-glutamine, and 2% of essential and non-essential amino acids and 20 mM HEPES buffer.
(§3) The fibroblast and hepatoblastoma cells were cultured in media containing 25% D2 O and 1% FBS in order to determine de novo cholesterol synthesis under conditions that permit receptor mediated cholesterol transport, according to the method of Easterman & Javitt et al., J. Lipid Res., 26: 950-954 (1985). Dish cultures of each cell type were prepared, and 26-aminocholesterol, dissolved in N,N-dimethylformamide (DMF, 9 ul per dish, 0.3% v/v) was added to each culture. The cells were then grown to confluence (96 hours, day 5). […] Duplicate or triplicate dishes containing 9 ul of DMF, but without 26-aminocholesterol, were used as controls.
LDL (d, 1.019-1.03) was isolated by sequential preparative ultracentrifugation of normal human plasma, using solid KBr for density adjustment, according to the methods of Havel et al., J. Clin. Invest., 34: 1345-1353 (1955) and Radding & Steinberg, J Clin. Invest., 39: 1560-1569 (1960). The isolated LDL was then iodinated with ^125 INa by the monochloride procedure of McFarlane, Nature, 102: 53 (1958), as modified for lipoproteins according to Bilheimer et al., Biochim. Biophys. Acta. 260: 212-221 (1972). To remove free iodine, the LDL preparation was subjected to column chromatography on a Sephadex G-25M disposable mini-column (Pharmacia PD-10) and was dialized against 0.15 M NaCl and […] EDTA, pH 7.4. The specific activity of all LDL preparations ranged between 160-300 cpm/mg of LDL proteins. ^125 I-LDL was stored at 4° C. and was sterilized by filtration through a 0.45 um membrane just prior to incubation with the treated fibroblast and hepatoblastoma cell cultures and control cultures.
For binding studies, a fixed concentration of 10 ug/ml of ^125 I-LDL was added directly to the monolayers of the confluent culture medium (at or near the 96th hour) and incubation was continued for a further 4 hours at 37° C. for fibroblasts and 4° C. for HepG2 cells. After this incubation, the culture dishes were placed on ice, the medium was removed, and the cell monolayers were washed as described in Goldstein & Brown, J. Biol. Chem., 249: 5153-5162 (1974). The monolayers were then scraped off the dishes with a teflon policeman and were solubilized with 1 ml of 0.1 N NaOH.
Cell-associated radioactivity was measured in a Packard auto gamma scintillation spectrometer Model 5160, and cell protein was measured by the method of Lowry et al., J. Biol. Chem., 193: 265-275 (1951), using bovine serum albumin as a standard. Total ^125 I-LDL binding was expressed as the mass of ^125 I-LDL (mg) per mg of cell protein.
For purposes of comparison, ^125 I-LDL and cholesterol assays were also conducted in cultures prepared according to the above methods, but incubated with 26-hydroxycholesterol in one set of experiments and with the sterol 26-thiacholesterol in another set of experiments. These sterols were obtained according to known methods, similar to those described above for 26-aminocholesterol.

Human Fibroblasts = assay: De novo cholesterol synthesis in human fibroblasts (D2O); assay type: cell-based; conditions: for % DE NOVO (De Novo Cholesterol Synthesis): 96 h, n = 3, untreated 19.0
Protocol: as §1, §2, §3
After 96 hours of incubation, medium was removed from the cell cultures, and the cells were washed with Dulbecco's PBS and were harvested with 0.05% trypsin - 0.02% EDTA. The protease was deactivated with an equivolume aliquot of soybean trypsin inhibitor, and the resulting cell suspension was centrifuged for 5 minutes at 500xg. An internal standard of 5B-cholestan-3B-ol was added to the pellets prior to extraction with an 8:4:3 chloroform:methanol:water Folch mixture, as described in Folch et al., J. Biol. Chem., 266: 497-509 (1957). An aliquot of the extract was blown to dryness under nitrogen and silylated with 2:1:1 MSTFA (a sylated reagent supplied by Pierce Co.): toluene:-pyridine. Free cholesterol was determined by gas-liquid chromatography (GLC) on a Perkin-Elmer capillary gas-liquid chromatography model 8320 fitted with a 20 m DE-1 methylsilicon glass column (Supelco). The remaining extract was dried and saponified with 2% ethanolic KOH at 80° C. for one hour. The […] was then re-extracted and total cholesterol was measured by GLC after silylation. Cholesterol ester was calculated as the difference between the total and free cholesterol determinations. Newly synthesized cholesterol was determined by GLC-MS isotope mass ratios, using a Hewlett-Packard GC-MS spectrometer model 5890 fitted with DB-1 methyl silicon 0.18 i.d. 20 m glass column (Supelco), according to the method of J. Lipid. Res., 26: 950-954, supra. […]

[2] = tested on: fibroblast and hepatoblastoma cells; assay type: cell-based, human
Protocol: Lipid Res., 26: 950-954 (1985). Dish cultures of each cell type were prepared, and 26-aminocholesterol, dissolved in N,N-dimethylformamide (DMF, 9 ul per dish, 0.3% v/v) was added to each culture. The cells were then grown to confluence (96 hours, day 5). […] Duplicate or triplicate dishes containing 9 ul of DMF, but without 26-aminocholesterol, were used as controls.

HMG CoA reductase = HMG CoA reductase activity in fibroblasts; assay type: cell-based
[3] = tested on: DNA synthesis and cell growth; conditions: mechanism appears independent of HMG CoA reductase activity; cited from earlier work

## CC(CS)CCC[C@@H](C)[C@H]1CC[C@H]2[C@@H]3CC=C4C[C@@H](O)CC[C@]4(C)[C@H]3CC[C@]12C (stereo partly drawn) [26-SH]
[1]; 5.0 uM, human fibroblasts
  125I-LDL BINDING: 37.9 +/- 1.8 ug LDL protein per mg cell pro
[1]; 10.0 uM, human fibroblasts
  125I-LDL BINDING: 25.7 +/- 0.7 ug LDL protein per mg cell pro
[1]; 20.0 uM, human fibroblasts
  125I-LDL BINDING: 35.7 +/- 4.8 ug LDL protein per mg cell pro
[1]
  LDL-binding (in words): no impact
Human Fibroblasts
  de novo cholesterol synthesis (in words): no impact
Human Fibroblasts; 5.0 uM
  % DE NOVO (De Novo Cholesterol Synthesis): 27.8%
Human Fibroblasts; 10.0 uM
  % DE NOVO (De Novo Cholesterol Synthesis): 21.9%
Human Fibroblasts; 20.0 uM
  % DE NOVO (De Novo Cholesterol Synthesis): 13.6%

## C[C@@H](CN)CCC[C@@H](C)[C@H]1CC[C@H]2[C@@H]3CC=C4C[C@@H](O)CC[C@]4(C)[C@H]3CC[C@]12C [26-NH2, 26-aminocholesterol]
[1]; 0.156 uM, human fibroblasts
  125I-LDL BINDING: 29.6 +/- 1.1 ug LDL protein per mg cell pro
[1]; 0.312 uM, human fibroblasts
  125I-LDL BINDING: 22.6 +/- 5.4 ug LDL protein per mg cell pro
[1]; 0.625 uM, human fibroblasts
  125I-LDL BINDING: 13.3 +/- 1.6 ug LDL protein per mg cell pro
[1]
  LDL-binding (in words): significant reductions; also recorded: downregulates LDL binding; also recorded: selectively inhibits and reduces LDL binding
[1]; human fibroblasts, versus 26-hydroxycholesterol
  potency in comparison (in words): significantly more potent
Human Fibroblasts
  de novo cholesterol synthesis (in words): significant reductions
Human Fibroblasts; 0.156 uM
  % DE NOVO (De Novo Cholesterol Synthesis): 16.7%
Human Fibroblasts; 0.312 uM
  % DE NOVO (De Novo Cholesterol Synthesis): 10.0%
Human Fibroblasts; 0.625 uM
  % DE NOVO (De Novo Cholesterol Synthesis): 2.7%
[2]
  effect on cell growth: No effect on cell growth was observed
HMG CoA reductase
  HMG CoA reductase activity: inhibit HMG CoA reductase activity
[3]
  DNA synthesis and cell growth: downregulate DNA synthesis and cell growth

## CC(CO)CCC[C@@H](C)[C@H]1CC[C@H]2[C@@H]3CC=C4C[C@@H](O)CC[C@]4(C)[C@H]3CC[C@]12C (stereo partly drawn) [26-OH, 26-hydroxycholesterol]
[1]; 0.625 uM, human fibroblasts
  125I-LDL BINDING: 22.0 +/- 2.4 ug LDL protein per mg cell pro
[1]
  LDL-binding (in words): significant reductions
Human Fibroblasts
  de novo cholesterol synthesis (in words): significant reductions
Human Fibroblasts; 0.625 uM
  % DE NOVO (De Novo Cholesterol Synthesis): 3.9%
